# Active and inactive are the calls of the source. The rule behind the calls is not given here.
# Key:
# [1] = Inhibition of beta-adrenergic receptor in isoproterenol-stimulated guinea pig atrial muscle; assay type: tissue-based, Cavia porcellus, Cardiac atrium
# [2] = Myocardial depressant activity in guinea pig atrial muscle assessed as maximal non-depressant dose by measuring contractility; assay type: ADME, tissue-based, Cavia porcellus, Muscle tissue
# [3] = target: Adrenergic receptor beta (Rattus norvegicus, UniProt P18090+P10608+P26255); assay: Inhibition of beta-adrenergic receptor in rat portal vein
# [4] = Retention time of the compound; assay type: physicochemical
# [5] = Myocardial depressant activity in guinea pig atrial muscle assessed as decrease in contractility at 0.31 x 10^-3 to 0.31 mg/ml; assay type: ADME, tissue-based, Cavia porcellus, Muscle tissue
# [6] = Myocardial depressant activity in guinea pig atrial muscle assessed as decrease in contractility at 1.0 mg/ml; assay type: ADME, tissue-based, Cavia porcellus, Muscle tissue
# [7] = species on record: Felis catus; assay: Inhibition of beta-adrenergic receptor in cat papillary muscle; assay type: tissue-based
# [8] = Myocardial depressant activity in cat papillary muscle assessed as decrease in contractile force at >0.31 mg/ml; assay type: ADME, tissue-based, Felis catus, Muscle tissue
SMILES,IC50 [1],Activity [2] [µg/mL],further results
CC(C)(C)NCC(O)COc1ccc(O)c2c1C[C@@H]1OCO[C@@H]1C2 (stereo not given in full),0.3 µg/mL,100,
CO[C@H]1Cc2cccc(OCC(O)CNC(C)(C)C)c2C[C@H]1OC.Cl (relative stereo),,100,IC50 [3]: 0.051 µg/mL
Oc1cccc2c1CCC=C2,,,Retention_time [4]: 37 min
CC(C)(C)NCC(O)COc1cccc2c1CC[C@@H](O)[C@@H]2O (relative stereo),0.02 µg/mL,310,
CC(C)NCC(O)COc1cccc2ccccc12 (stereo not given) [PROPRANOLOL],,0.31,
CC(C)(C)NCC(O)COc1cccc2c1C[C@@H]1OCO[C@@H]1C2 (relative stereo),0.04 µg/mL,3.1,
CCCCNCC(O)COc1cccc2c1C[C@H](O)[C@H](O)C2 (stereo not given in full),,,IC50 [3]: 0.44 µg/mL
CC(C)NCC(O)COc1cccc2c1CC(O)CC2 (stereo not given),0.005 µg/mL,3.1,
CC(C)(C)NCC(O)COc1ccc2c(c1)C[C@@H](O)[C@@H](O)C2 (relative stereo),10 µg/mL,> 1000,
Oc1cccc2c1CCCC2,,,Retention_time [4]: 37.5 min
CC(C)NCC(O)COc1cccc2c1CC1OC1C2 (stereo not given),0.012 µg/mL,31,
CC(O)(CNC(C)(C)C)COc1cccc2c1C[C@H](O)[C@H](O)C2 (stereo not given in full),16 µg/mL,31,
CC(C)NCC(O)COc1cccc2c1CCC(=O)C2 (stereo not given),0.006 µg/mL,3.1,
Oc1cccc2c1C=CCC2,,,Retention_time [4]: 35 min
CC(C)(C)NCC(O)COc1cccc2c1CC(O)CC2 (stereo not given),0.0025 µg/mL,1,
CC(C)(C)NCC(O)COc1ccc2c(c1)C[C@@H](O)[C@H](O)C2 (relative stereo),6 µg/mL,100,
CC(C)(C)NCC(O)COc1cccc2c1CC=CC2 (stereo not given),,0.3,IC50 [3]: 0.0013 µg/mL
CC(C)NCC(O)COc1cccc2c1CC=CC2 (stereo not given),0.001 µg/mL,1,

SMILES,IC50 [1],Activity [2] [µg/mL],further results
C=CCc1ccc(OCCNCC(O)COc2cccc3c2C[C@H](O)[C@H](O)C3)c(OC)c1 (stereo not given in full),,3.1,IC50 [3]: 1.5 µg/mL
CC(C)(C)NCC(O)COc1cccc2c1CCC(O)C2 (stereo not given),0.001 µg/mL,10,
CC(C)NCC(O)COc1cc(O)c(O)c2c1CCCC2 (stereo not given),0.11 µg/mL,100,
COc1ccc(CCNCC(O)COc2cc(O)c(O)c3c2CCCC3)cc1OC.Cl (stereo not given),5.9 µg/mL,3.1,
CO[C@@H]1c2c(cccc2OCC(O)CNC(C)C)CC[C@@H]1O.O=C(O)C(=O)O (relative stereo),0.8 µg/mL,10,
CC(C)NCC(O)COc1cccc2c1CCCC2 (stereo not given),0.01 µg/mL,1,
CC(C)(C)NCC(O)COc1cc(O)c(O)c2c1CCCC2 (stereo not given),0.1 µg/mL,10,
CC(C)NCC(O)COc1cccc2c1CCC(O)C2.O=C(O)C(=O)O (stereo not given),0.002 µg/mL,31,
CC(C)NCC(O)COc1ccc(O)c2c1CCCC2 (stereo not given),0.004 µg/mL,10,
Cl.NCC(O)COc1ccc(O)c2c1CCCC2 (stereo not given),0.15 µg/mL,31,
CO[C@@H]1c2cccc(OCC(O)CNC(C)C)c2CC[C@H]1O.O=C(O)C(=O)O (relative stereo),0.05 µg/mL,31,
COc1ccccc1N1CCN(CC(O)COc2cccc3c2C[C@H](O)[C@H](O)C3)CC1 (stereo not given in full),,,IC50 [3]: 0.46 µg/mL
COc1ccc(CCNCC(O)COc2ccc(O)c3c2CCCC3)cc1OC (stereo not given),0.024 µg/mL,3.1,
CC(C)(C)NCC(O)COc1ccc(O)c2c1CCCC2 (stereo not given),0.01 µg/mL,10,
CC(C)(C)NCC(O)COc1ccc(O)c2c1C[C@@H](O)[C@@H](O)C2.Cl (relative stereo),0.086 µg/mL,,inhibition (INH) [5]: 10%; Activity [6]: Non-toxic
CC(C)(C)NCC(O)COc1ccc(I)c2c1C[C@H](O)[C@H](O)C2 (relative stereo),,,inhibition [7]: Active; Activity [8]: Toxic
CC(C)(C)NCC(O)COc1cccc2c1CCCC2=O (stereo not given) [BUNOLOL],0.006 µg/mL,1,

# Now from value to compound, other results behind:
IC50 [1],Activity [2] [µg/mL],SMILES,further results
1 µg/mL,100,OC(CNCc1ccccc1)COc1cccc2c1C[C@H](O)[C@H](O)C2 (stereo not given in full),
,3.1,CC(C)(Cc1ccccc1)NCC(O)COc1cccc2c1C[C@H](O)[C@H](O)C2 (stereo not given in full),IC50 [3]: 0.045 µg/mL
0.63 µg/mL,1000,CC(C)(C)[N+](C)(C)CC(O)COc1cccc2c1C[C@H](O)[C@H](O)C2.[I-] (stereo not given in full),
0.31 µg/mL,31,CCOc1ccccc1OCCNCC(O)COc1cccc2c1C[C@H](O)[C@H](O)C2 (stereo not given in full),
Not Active,> 1000,CN(CC(O)COc1cccc2c1C[C@H](O)[C@H](O)C2)C(C)(C)C (stereo not given in full),
0.1 µg/mL,> 1000,CC(C)NCC(O)COc1cccc2c1C[C@@H](O)[C@@H](O)C2 (relative stereo),
80 µg/mL,310,CC(C)N(Cc1ccccc1)CC(O)COc1cccc2c1C[C@H](O)[C@H](O)C2 (stereo not given in full),
0.05 µg/mL,> 1000,CC(C)NCC(O)COc1cccc2c1C[C@H](O)[C@@H](O)C2 (relative stereo),
31 µg/mL,> 1000,CCN(CC)CC(O)COc1cccc2c1C[C@H](O)[C@H](O)C2 (stereo not given in full),
,31,CC(C)(C)N(CCNCC(O)COc1cccc2c1C[C@H](O)[C@H](O)C2)Cc1ccccc1 (stereo not given in full),IC50 [3]: > 8 µg/mL
3.8 µg/mL,> 1000,Cl.NCC(O)COc1cccc2c1C[C@H](O)[C@H](O)C2 (stereo not given in full),
0.03 µg/mL,> 1000,CC(C)(C)NCC(O)COc1cccc2c1C[C@@H](O)[C@@H](O)C2 (relative stereo),
Not Active,> 310,OC(COc1cccc2c1C[C@H](O)[C@H](O)C2)CN1CCN(c2ccccn2)CC1 (stereo not given in full),
0.015 µg/mL,> 1000,CC(C)(C)NCC(O)COc1cccc2c1C[C@H](O)[C@@H](O)C2 (relative stereo),
0.5 µg/mL,100,OC(CNCCc1ccccc1)COc1cccc2c1C[C@H](O)[C@H](O)C2 (stereo not given in full),
0.07 µg/mL,> 1000,COc1ccc(CCNCC(O)COc2cccc3c2C[C@H](O)[C@H](O)C3)cc1OC (stereo not given in full),
,1,CC(C)(C)CC(C)(C)NCC(O)COc1cccc2c1C[C@H](O)[C@H](O)C2 (stereo not given in full),IC50 [3]: 0.78 µg/mL
,> 1000,CCN(CC(O)COc1cccc2c1C[C@H](O)[C@H](O)C2)C(C)(C)C (stereo not given in full),

# Source: ChEMBL document CHEMBL3243942, “Nondepressant beta-adrenergic blocking agents. 1. Substituted 3-amino-1-(5,6,7,8-tetrahydro-1-naphthoxy)-2-propanols” (J Med Chem, 1978)
